This note sets out measurements from patent US10710986B2, “PD-1/PD-L1 inhibitors” (Gilead Sciences, Inc., priority 2018, dated 2020).

In general, IC50 refers to the midpoint of a concentration-inhibition curve.

For this test, the target named is PD-1/PD-L1 (Homo sapiens (Human), UniProt Q9NZQ7). Description: PD-1/PD-L1 biochemical protein-protein interaction assay (ALPHA). Conditions: 0.3 nM His tagged PD-L1, 2.5 nM biotinylated Fc-PD-1, 60 minutes at 25° C., read-out: IC50 PD-L1-PD1.
PD-1/PD-L1, sequence (Q9NZQ7 19-238): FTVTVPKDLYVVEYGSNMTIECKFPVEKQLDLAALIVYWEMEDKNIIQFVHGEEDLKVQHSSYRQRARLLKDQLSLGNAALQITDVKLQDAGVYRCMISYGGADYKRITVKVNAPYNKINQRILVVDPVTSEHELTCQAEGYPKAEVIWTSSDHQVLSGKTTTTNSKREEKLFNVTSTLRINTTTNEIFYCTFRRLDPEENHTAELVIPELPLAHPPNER
As for `COc1nc(-c2cccc(-c3cccc(-c4cnc(CNC[C@@H]5CCC(=O)N5)c(OC)n4)c3Cl)c2F)ccc1CNC[C@@H]1CCC(=O)N1` [compound 498], the half-inhibitory concentration (IC50) came to 0.169 nM.
Take `COc1nc(-c2cccc(-c3cccc(-c4cnc(CN5CC(O)C5)c(OC)n4)c3F)c2Cl)ccc1CN1CC(O)C1` [compound 619]: the concentration for half-maximal inhibition (IC50) came out at 0.178 nM.
As for `CNc1nc(-c2cccc(-c3cccc(-c4cnc(CN5CC(O)C5)c(NC)n4)c3Cl)c2Cl)cnc1CN1CC(O)C1` [compound 77], the half-inhibitory concentration (IC50) was 0.192 nM.
In the case of `COc1nc(-c2cccc(-c3cccc(-c4cc(C)c(CN5CC6(C5)CN(C(C)=O)C6)c(OC)n4)c3Cl)c2Cl)cnc1CNC[C@@H]1CCC(=O)N1` [compound 653], the IC50 turned out to be 0.064 nM.
With `COc1nc(-c2cccc(-c3cccc(-c4cnc(CN5CC(N6CCCC6=O)C5)c(OC)n4)c3Cl)c2Cl)cnc1CNC[C@@H]1CCC(=O)N1` [compound 14], the IC50 amounted to 0.224 nM.
Regarding `COc1nc(-c2cccc(-c3cccc(-c4cnc(CN5CC(N6CCOCC6)C5)c(OC)n4)c3Cl)c2Cl)cnc1CNC[C@@H]1CCC(=O)N1` [compound 351], the 50% inhibitory concentration (IC50) worked out at 0.283 nM.
Take `COc1nc(-c2cccc(-c3cccc(-c4cnc(CN5CC6(CCC(=O)N6)C5)c(OC)n4)c3Cl)c2F)ccc1CN1CC2(CCC(=O)N2)C1` [compound 649]: the IC50 was 0.128 nM.
`COc1nc(-c2cccc(-c3cccc(-c4cnc(CNC[C@H]5C[C@@](C)(O)C5)c(OC)n4)c3Cl)c2Cl)cnc1CNC[C@@H]1CCC(=O)N1` [compound 566]: the IC50 turned out to be 0.13 nM.
For `COc1nc(-c2cccc(-c3cccc(-c4cnc(CNC56CC(C5)C6)c(OC)n4)c3Cl)c2Cl)cnc1CNC[C@@H]1CCC(=O)N1` [compound 12], the half-inhibitory concentration (IC50) stood at 1.49 nM.
`COc1nc(-c2cccc(-c3cccc(-c4cnc(CN5CC(O)C5)c(OC)n4)c3Cl)c2Cl)cnc1CN1CC(O)C1` [compound 131]: the IC50 amounted to 0.309 nM.
Consider `CNc1nc(-c2cccc(-c3cccc(-c4cnc(CNC[C@@H]5CCC(=O)N5)c(OC)n4)c3Cl)c2Cl)cnc1CN1CC2(C1)CN(C(C)=O)C2` [compound 488], for which the 50% inhibitory concentration (IC50) is 0.064 nM.
As for `COc1nc(-c2cccc(-c3cccc(-c4cnc(CN5CC(C#N)C5)c(OC)n4)c3Cl)c2Cl)cnc1CNC[C@@H]1CCC(=O)N1` [compound 10], the IC50 amounted to 0.27 nM.
For the compound `COc1nc(-c2cccc(-c3cccc(-c4cnc(CNCc5cn[nH]c5)c(OC)n4)c3Cl)c2Cl)cnc1CNCc1cn[nH]c1` [compound 456], the IC50 was 0.186 nM.
Turning to `COC1CN(Cc2ncc(-c3cccc(-c4cccc(-c5cnc(CN6CC(OC)C6)c(C)n5)c4Cl)c3Cl)nc2C)C1` [compound 92], the IC50 is 1.03 nM.
For `COc1nc(-c2cccc(-c3cccc(-c4cnc(CN5CCN[C@@H](C)C5)c(OC)n4)c3Cl)c2Cl)cnc1CNC[C@@H]1CCC(=O)N1` [compound 250], the IC50 stood at 0.12 nM.
Regarding `COc1nc(-c2cccc(-c3cccc(-c4cnc(CNC5CCC(F)C5)c(OC)n4)c3Cl)c2Cl)cnc1CNC[C@@H]1CCC(=O)N1` (some centres unmarked) [compound 177], the 50% inhibitory concentration (IC50) stood at 0.33 nM.
As for `COc1nc(-c2cccc(-c3cccc(-c4cnc(CN(C)CCO)c(OC)n4)c3Cl)c2Cl)cnc1CNC[C@@H]1CCC(=O)N1` [compound 323], the 50% inhibitory concentration (IC50) turned out to be 0.12 nM.
Turning to `COc1nc(-c2cccc(-c3cccc(-c4cnc(CN5CC6(CCC(=O)N6)C5)c(OC)n4)c3Cl)c2Cl)cnc1CNC[C@@H]1CCC(=O)N1` [compound 371], the concentration for half-maximal inhibition (IC50) worked out at 0.213 nM.
For `COc1nc(-c2cccc(-c3cccc(-c4cnc(CNC[C@@H]5CCC(=O)N5)c(OC)n4)c3Cl)c2Cl)cnc1CNCCc1nnc[nH]1` [compound 461], the IC50 is 0.159 nM.
For the compound `COc1nc(-c2cccc(-c3cccc(-c4cnc(CN[C@@H]5CCOC5)c(OC)n4)c3Cl)c2Cl)cnc1CNC[C@@H]1CCC(=O)N1` [compound 360], the IC50 is 0.401 nM.
As for `COc1nc(-c2cccc(-c3cccc(-c4cnc(CN5CC(NC(C)=O)C5)c(OC)n4)c3Cl)c2Cl)cnc1CNC[C@@H]1CCC(=O)N1` [compound 369], the half-inhibitory concentration (IC50) was determined as 0.078 nM.
As to `COc1nc(-c2cccc(-c3cccc(-c4cnc(CN(C)C)c(OC)n4)c3Cl)c2Cl)cnc1CNC[C@@H]1CCC(=O)N1` [compound 46], the IC50 came to 0.081 nM.
On to `COc1nc(-c2cccc(-c3cccc(-c4cnc(CNC[C@@H]5CCC(=O)N5)c(OC)n4)c3Cl)c2Cl)cnc1CNCC1CCN(C)C1=O` (some centres unmarked) [compound 543], for which the IC50 was 0.2 nM.
Take `COc1nc(-c2cccc(-c3cccc(-c4cnc(CN5CC(C)(O)C5)c(OC)n4)c3Cl)c2Cl)cnc1CN1CC(C)(O)C1` [compound 147]: the IC50 is 0.06 nM.
The result for `CN(C)c1nc(-c2cccc(-c3cccc(-c4cnc(CNC[C@@H]5CCC(=O)N5)c(N(C)C)n4)c3Cl)c2Cl)cnc1CNC[C@@H]1CCC(=O)N1` [compound 105] reads 0.302 nM.
For the compound `COc1nc(-c2cccc(-c3cccc(-c4cnc(CN5CCCC6(C5)NC(=O)NC6=O)c(OC)n4)c3Cl)c2Cl)cnc1CNC[C@@H]1CCC(=O)N1` (some centres unmarked) [compound 293], the half-inhibitory concentration (IC50) worked out at 0.516 nM.
The figure for `COc1nc(-c2cccc(-c3cccc(-c4cnc(CN5CCC(O)(CC#N)C5)c(OC)n4)c3Cl)c2Cl)cnc1CNC[C@@H]1CCC(=O)N1` (some centres unmarked) [compound 407] is 0.186 nM; for `COCC(NCc1ncc(-c2cccc(-c3cccc(-c4cnc(CNC[C@@H]5CCC(=O)N5)c(OC)n4)c3Cl)c2Cl)nc1OC)C(F)(F)F` (some centres unmarked) [compound 249] it is 2.67 nM; for `CCn1nc(CN2CC3(C2)CN(C(C)=O)C3)c2ncc(-c3cccc(-c4cccc(-c5cnc(CN6CC7(C6)CN(C(C)=O)C7)c(OC)n5)c4Cl)c3Cl)nc21` [compound 490] it is 0.565 nM.
For `COc1nc(-c2cccc(-c3cccc(-c4cnc(CNCC5CCS(=O)(=O)N5)c(OC)n4)c3Cl)c2Cl)cnc1CNCC1CCS(=O)(=O)N1` (centres unmarked) [compound 576], the 50% inhibitory concentration (IC50) amounted to 0.641 nM.
For the compound `COC[C@@H]1CC[C@H]1NCc1ncc(-c2cccc(-c3cccc(-c4cnc(CNC[C@@H]5CCC(=O)N5)c(OC)n4)c3Cl)c2Cl)nc1OC` [compound 215], the IC50 came out at 0.11 nM.
The figure for `COc1nc(-c2cccc(-c3cccc(-c4cnc(CNC[C@H]5C[C@@H](OC)C5)c(OC)n4)c3Cl)c2Cl)cnc1CNC[C@@H]1CCC(=O)N1` [compound 228] is 0.168 nM.
For `COc1nc(-c2cccc(-c3cccc(-c4cnc(CN[C@H]5C[C@H](NC(C)=O)C5)c(OC)n4)c3Cl)c2Cl)cnc1CNC[C@@H]1CCC(=O)N1` [compound 361], the IC50 amounted to 0.13 nM.
As for `COc1nc(-c2cccc(-c3cccc(-c4cnc(CN[C@@](C)(CO)C(=O)O)c(OC)n4)c3Cl)c2Cl)cnc1CNC[C@@H]1CCC(=O)N1` [compound 553], the IC50 turned out to be 0.118 nM.
The figure for `COc1nc(-c2cccc(-c3cccc(-c4cnc(CNC[C@H]5CCC[C@@H]5O)c(OC)n4)c3Cl)c2Cl)cnc1CNC[C@@H]1CCC(=O)N1` [compound 54] is 0.18 nM; for `COc1nc(-c2cccc(-c3cccc(-c4cnc(CN5C[C@@H](OC)C[C@H]5CO)c(OC)n4)c3Cl)c2Cl)cnc1CNC[C@@H]1CCC(=O)N1` [compound 224] it is 0.393 nM.
`COc1nc(-c2cccc(-c3cccc(-c4cnc(CNC[C@@H]5CCC(=O)N5)c(OC)n4)c3Cl)c2Cl)cnc1CNCC[C@@H]1CNC(=O)C1` [compound 539]: the IC50 was found to be 0.171 nM.
Turning to `COc1nc(-c2cccc(-c3cccc(-c4cnc(CNC[C@@H]5CCC(=O)N5C)c(OC)n4)c3Cl)c2Cl)cnc1CNC[C@@H]1CCC(=O)N1` [compound 303], the IC50 turned out to be 0.256 nM.
